Data reported in patent US12521564B2, “Method and apparatus for oncomagnetic treatment” (THE METHODIST HOSPITAL, priority 2020, dated 2026).
Entries after “also recorded” stand apart in the source; their conditions may differ.

Columns and labels:
GBM cells [1] = details: FCCP added after 2-3 OMF stimulation cycles
Protocol: In cultured GBM156 cells 10-minute stimulation/pause cycles were used to provoke a MPT response.
Oxygen electrode data collection: A thermostatically controlled (37° C.), water-jacketed, glass-walled, Clark-type O2 electrode was used throughout. […] The oncoscillator was attached to the end of a microphone stand and was held perpendicular to the outer glass wall of the electrode, so that there was an air gap of ≈5 mm between the two devices. There was a degree of crosstalk between to stirring bar of the O2-electrode chamber and the oncoscillator; this interaction manifests itself as jumps or drops in the apparent O2 concentrations at the beginning or the end of OMF stimulation. […] The stirrer velocity was therefore optimized to negate the interaction with the oncoscillator.
Tumor culture preparations: GBM and meningioma tumors were taken at the time of (first) excision and given the laboratory ID. They were washed in PBS, chopped with a scalpel and homogenized in a BeadBug™ homogenizer using 1.5 mm Zirconium beads, in an equal volume of PBS. […] The homogenates were grown in DMEM with 20% FBS, 1U GlutaMax™, sodium pyruvate (1 mM), penicillin (100 U/ml), and streptomycin (100 mg/ml). […]
Cells were grown to confluency, counted, harvested using trypsin, washed in ice-cold PBS and stored on ice at 8×10^9 cells/ml. O2 consumption of cells was measured in PBS, 10 mM glucose, 37° C. […]

GBM cells [2] = assay: Surviving cell count after OMF stimulation in presence of drugs; format: cell-based, human
Description: Histograms of the percentage of cells plotted against the normalized fluorescence intensity (ratio of intensity to the width of the forward scatter) measured by flow cytometry of H2DCF-stained GBM (U87) and normal astroglial (SVGp12) cells reveal nearly a two-fold increase in GBM cells due to OMF, but a ˜50% decrease in astroglial cells (FIG. 44). To test whether cell death is caused by the OMF-induced increase in ROS, a potent antioxidant Trolox was used to counteract it, while measuring the decrease in GBM cell count due to 4 h exposure to OMF. Conversely, it also was asked whether OMF potentiates the cell killing effect of a known ROS inducer, benzylamine. […] Magnetically influenced RPM plays a role in ubiquitously expressed flavoproteins called cryptochromes, which can also generate ROS when perturbed by magnetic fields. Cryptochrome agonists have been recently shown to inhibit cancer stem cell proliferation in GBM. This alternative possibility for generation of ROS by OMF was tested by counting surviving cells after two 4 h sessions of OMF stimulation over 24 h in the presence and absence of a cryptochrome antagonist, KS15. […] According to a certain setup, cells grown in 96-well cell culture plates were OMF stimulated, sham stimulated or unstimulated for 4 h inside humidified CO2 incubator. Paraformaldehyde (4% w/v in PBS) was used for fixation and DAPI was used for staining nuclei. […] Live and dead cell images were captured at 10× magnification on a Nikon Eclipse TE2000-E microscope and analyzed with NIS-Element program or a Carl Zeiss Axio Observer microscope with an onstage incubation chamber having a humidified 5% CO2 supply. […] […] To do this surviving cells were counted after two 4 h sessions of OMF stimulation over 24 h in the presence and absence of a cryptochrome antagonist, KS15.

[3] = system: rat liver mitochondria (RLM); assay: O2 electrode trace of rat liver mitochondria metabolizing succinate under OMF stimulation; format: biochemical; details: 5 μM bongkrekic acid, RLM metabolizing 5 mM succinate
Protocol: FIG. 18A illustrates an apparatus 1800 used to perform the procedures outlined above. The apparatus 1800 includes oncoscillator component and generates OMF by rotating an N52 permanent Neodymium rare earth magnet. The oncoscillator assembly is held by a microphone stand, placed next to the water jacketed O2 electrode with a 5 mm air gap, halting vibration transfer. The oncoscillator is positioned so that the center of 1 ml media chamber is exposed to a magnetic field of ≈8 mT. The rotation of the oncoscillator magnet has a small artifactual effect on the O2 electrode stirrer bar giving rise to an apparent drop or rise in O2 levels.
The effect of OMF on energized rat liver mitochondria (RLM) was examined. […] After the addition of succinate the slow ‘State 4’ consumption of O2 (≈10 e^−s^−1) that is typical of RLM oxidizing succinate in the absence of ADP (‘State 3’) or uncouplers is observed. In state 4 the electron flux from succinate dehydrogenase, the bc1 complex and cytochrome c oxidase is controlled by the presence of a large membrane potential (ΔΨ) and ΔpH, estimated to be […] and 11 mV, respectively, under similar conditions.
When OMF stimulation is initiated, respiration is completely halted for the whole 5-min OMF stimulation period. […] After this second stimulation regime ended, respiration restarted at the rate recorded prior to the stimulation cycle. […]

DIPG cells = assay: O2 consumption of primary DIPG cells under OMF stimulation cycles; format: cell-based, human; details: 5 μM bongkrekic acid
Description: Before OMF stimulation the O2 consumption rate is ≈40 pMol O2 sec^−1 million cells^−1, similar to that seen in Chinese hamster ovary cells (100%). During the first five minutes of OMF stimulation cycle, respiration rate falls by a third, and during the first fifteen-minute pause this respiration rate remains at 65% of the initial rate. During the second stimulation cycle, respiration falls to only 45% of the control rate. When the cycle ends the rate rises to 58%, but over the 15-minute pause the flux slows down. During the third stimulation cycle, O2 consumption is held at half the initial rate, but when stimulation ceases a rapid increase in respiration is observed, which increases over the first 10 min and then begins to slow.
The large increase in mitochondrial electron flux that is observed at the end of the third cycle is consistent with a relatively homogenous population of cells, all undergoing MPT simultaneously. To test if this is the correct interpretation of the data, the experiment was rerun, but this time in the presence of 5 μM bongkrekic acid (FIG. 20B). Blocking the ANT with bongkrekic acid slows the steady state mitochondrial electron flux to 55% of that seen in its absence (both rates arc normalized to 100% in each panel for case of interpretation). […]
O2 consumption of cells was measured in PBS, 10 mM glucose, 37° C. […]

[4] = system: high-grade meningioma cells; assay: O2 consumption of primary high-grade meningioma cells under OMF stimulation cycles; format: cell-based, human; details: cells pretreated with bongkrekic acid
Description: FIG. 21 follows the format of FIG. 20, but this time primary high-grade meningioma cells were used, showing that OMF stimulation cycles cause MPT. In these cells stimulation causes a 75% drop in the electron flux, and after the end of the first cycle, the cells maintain only half their initial rate (FIG. 21A). During the second cycle of stimulation mitochondrial respiration is completely halted, and as soon as the stimulation stops there is a burst of O2 uptake ≥6 times the initial steady state level. This rate drops in a first order manner.
Oxygen electrode data collection: A thermostatically controlled (37° C.), water-jacketed, glass-walled, Clark-type O2 electrode was used throughout. […] There was a degree of crosstalk between to stirring bar of the O2-electrode chamber and the oncoscillator; this interaction manifests itself as jumps or drops in the apparent O2 concentrations at the beginning or the end of OMF stimulation.
The homogenates were grown in DMEM with 20% FBS, 1U GlutaMax™, sodium pyruvate (1 mM), penicillin (100 U/ml), and streptomycin ([…]).
O2 consumption of cells was measured in PBS, 10 mM glucose, 37° C. 2 μM carbonyl cyanide trifluoromethoxyphenylhydrazone.

## N#CC(C#N)=NNc1ccc(OC(F)(F)F)cc1 [FCCP, carbonyl cyanide-p-trifluoromethoxyphenylhydrazone]
GBM cells [1]
  O2 consumption after addition of FCCP: did not lead to an increase in O2 consumption

## CCO[C@H](Cc1cccc(/C(C)=N/OCc2ccc(Br)cc2)c1)C(=O)O [KS15]
GBM cells [2]; two 4 h sessions of OMF stimulation over 24 h, presence vs absence of KS15
  effect on the decrease in cell count produced by OMF: significant partial attenuation

## Cc1c(C)c2c(c(C)c1O)CCC(C)(C(=O)O)O2 (stereo not drawn) [Trolox]
GBM cells [2]; 4 h exposure to OMF, antioxidant Trolox
  counteraction of the decrease in GBM cell count due to OMF-induced ROS: predictions are confirmed

## NCc1ccccc1 [benzylamine]
GBM cells [2]; 4 h exposure to OMF, benzylamine
  potentiation by OMF of the cell killing effect of the ROS inducer: predictions are confirmed

## CO[C@H](C/C=C\C=C\CC/C=C/C[C@H](C)/C=C/C(=C\C(=O)O)CC(=O)O)/C(C)=C\C=C(/C)C(=O)O [bongkrekic acid]
[3]
  mitochondrial 'State 4' flux: inhibits
[3]; OMF stimulation
  oncoscillator-induced permeability transition: completely abolishes
DIPG cells; 2×10^6/ml DIPG cells in glucose supplemented PBS
  steady state mitochondrial electron flux, % of that seen in absence of bongkrekic acid: 55%
DIPG cells; repeated OMF stimulation cycles
  OMF-induced permeability transition (increase in respiration rate): no increase in rate indicative of the permeability transition; also recorded: blocking the permeability
[4]
  OMF-induced increase in O2 uptake rate (MPT): abolished; also recorded: blocks the permeability
